From patent publication US20240116985A1, “STAPLED PEPTIDES AND METHODS THEREOF” (priority 2020, published 2024)
Values after ≈ are worked out from the molar mass of the structure shown. Where two headings read alike, the source gives them in different places.

Experiments:
[1] = molecular target: T1, beta-catenin/TCF4 engagement (Homo sapiens, UniProt P35222); test: Nano-BRET target engagement assay (B-cat-Halo & TCF4-Luc in HEK293 cells); assay type: cell-based; conditions: for IC50: absolute IC50, read-out: NanoBRET Abs IC50
T1 construct: expressed in transfected cells; host or cells: HEK293
T1 sequence (P35222 1-781): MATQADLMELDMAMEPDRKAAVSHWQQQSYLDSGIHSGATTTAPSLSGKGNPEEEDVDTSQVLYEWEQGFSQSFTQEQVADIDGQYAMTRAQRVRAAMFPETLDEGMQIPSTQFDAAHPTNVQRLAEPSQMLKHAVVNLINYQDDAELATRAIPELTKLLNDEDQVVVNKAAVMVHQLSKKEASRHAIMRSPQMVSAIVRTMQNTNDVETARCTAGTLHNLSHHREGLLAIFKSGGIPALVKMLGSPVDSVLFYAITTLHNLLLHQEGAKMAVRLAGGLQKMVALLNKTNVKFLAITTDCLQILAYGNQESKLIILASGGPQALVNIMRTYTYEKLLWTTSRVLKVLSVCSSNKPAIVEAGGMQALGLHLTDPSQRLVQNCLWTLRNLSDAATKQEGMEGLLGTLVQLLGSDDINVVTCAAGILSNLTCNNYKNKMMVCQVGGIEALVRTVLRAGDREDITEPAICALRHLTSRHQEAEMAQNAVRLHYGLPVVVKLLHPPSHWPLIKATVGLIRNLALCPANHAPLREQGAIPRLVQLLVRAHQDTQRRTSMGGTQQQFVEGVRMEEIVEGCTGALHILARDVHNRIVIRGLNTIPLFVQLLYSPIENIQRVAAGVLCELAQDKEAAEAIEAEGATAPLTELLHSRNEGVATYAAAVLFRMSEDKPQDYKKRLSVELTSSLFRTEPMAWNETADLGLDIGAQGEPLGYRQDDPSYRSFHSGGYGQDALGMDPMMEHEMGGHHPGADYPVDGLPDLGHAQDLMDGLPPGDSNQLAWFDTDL

[2] = CHI Log D procedure; assay type: physicochemical; conditions: for CHI Log D: pH 7.4
[3] = molecular target: T2, full-length beta-Catenin (Uniprot ID P35222) (Homo sapiens, UniProt P35222); test: Fluorescence polarization IC50 (beta-catenin / 5FAM-TCF4 10-53 competition); assay type: binding
T2 construct: 10 nM full-length beta-Catenin (Uniprot ID P35222)
T2 sequence (P35222 1-781): T1 sequence (P35222 1-781)

[4] = Solubility in PBS; assay type: physicochemical
How it was run: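 Read-out is the HPLC peak area of the supernatant from ultracentrifuged PBS solution, scaled against a 50 μM peptide DMSO injection; value reported as [(PBS area)/(DMSO area)]*50 uM.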

[5] = fluorescence polarization, read-out: beta-Catenin FP IC50

SMILES | IC50 [1] | CHI Log D [2] | IC50 [3, 5] | IC50 ([3]; read-out: FP EC50) | Solubility [4] | chromatographic logD ([2]; pH 7.4, CHI Log D) | Solubility ([4]; Solubility (uM)) | inhibition at 10 µM ([1]; HEK293, @ 10 uM, read-out: NanoBRET % inh @ 10 uM)
CC(=O)N1CCC[C@]12CC=CCCCC1(CCCC=CCCCCCC[C@@](C)(C(=O)N[C@@H](Cc3ccccc3)C(=O)N[C@@H](Cc3csc4ccccc34)C(=O)N[C@@H](CCC(N)=O)C(N)=O)NC(=O)[C@H](CC(N)=O)NC(=O)[C@H](Cc3ccccc3)NC(=O)[C@H](C)NC(=O)[C@H](C)NC(=O)[C@H](CC(=O)O)NC(=O)[C@H](CC(=O)O)NC1=O)NC(=O)[C@H](CCC(C)C)NC(=O)[C@H](CC(=O)O)NC2=O (stereo partly drawn) [I-548, Ac-PL3-Asp-hLeu-B5-Asp-Asp-Ala-Ala-Phe-Asn-S8-Phe-BztA-Gln-NH2] | 15600 nM | 2.528 | 17 nM | 17 nM | 50 µM (≈ 93.5 µg/mL) | – | – | –
CC[C@H](C)[C@@H]1NC(=O)[C@H](CC(=O)O)NC(=O)[C@]2(CC=CCCCC3(CCCC=CCCCCCC[C@@](C)(C(=O)N[C@@H](Cc4ccccc4OC)C(=O)N[C@@H](Cc4csc5ccccc45)C(=O)N[C@@H](CCC(N)=O)C(N)=O)NC(=O)[C@H](CC(N)=O)NC(=O)[C@H](Cc4ccccc4)NC(=O)[C@H](C)NC(=O)[C@H](C)NC(=O)[C@H](CC(=O)O)NC(=O)[C@H](CC(=O)O)NC3=O)NC1=O)CCCN2C(C)=O (stereo partly drawn) [I-550, Ac-PL3-Asp-Ile-B5-Asp-Asp-Ala-Ala-Phe-Asn-S8-2OMeF-BztA-Gln-NH2] | 21400 nM | 2.343 | 30 nM | 30 nM | 50 µM (≈ 94.3 µg/mL) | – | – | –
CC[C@H](C)[C@@H]1NC(=O)[C@H](CC(=O)O)NC(=O)[C@]2(CC=CCCCC3(CCCC=CCCCCCC[C@@](C)(C(=O)N[C@@H](Cc4ccccc4)C(=O)N[C@@H](Cc4csc5ccccc45)C(=O)N[C@@H](CCC(N)=O)C(N)=O)NC(=O)[C@H](CC(N)=O)NC(=O)[C@H](Cc4ccccc4)NC(=O)[C@H](C)NC(=O)[C@H](C)NC(=O)[C@H](CCC(=O)O)NC(=O)[C@H](CC(=O)O)NC3=O)NC1=O)CCCN2C(C)=O (stereo partly drawn) [I-557, Ac-PL3-Asp-Ile-B5-Asp-Glu-Ala-Ala-Phe-Asn-S8-Phe-BztA-Gln-NH2] | 16900 nM | – | 35 nM | – | – | 2.39 | 47 µM (≈ 87.9 µg/mL) | –
CC(=O)N1CCC[C@]12CC=CCCCC1(CCCC=CCCCCCC[C@@](C)(C(=O)N[C@@H](Cc3ccccc3)C(=O)N[C@@H](Cc3csc4ccccc34)C(=O)N[C@@H](CCC(N)=O)C(N)=O)NC(=O)[C@H](CC(N)=O)NC(=O)[C@H](Cc3ccccc3)NC(=O)[C@H](C)NC(=O)[C@H](C)NC(=O)[C@H](CC(=O)O)NC(=O)[C@H](CC(=O)O)NC1=O)NC(=O)[C@H](CC(C)C)NC(=O)[C@H](CC(=O)O)NC2=O (stereo partly drawn) [I-563, Ac-PL3-Asp-Leu-B5-Asp-Asp-Ala-Ala-Phe-Asn-S8-Phe-BztA-Gln-NH2] | 15700 nM | 2.317 | 19 nM | 19 nM | 50 µM (≈ 92.8 µg/mL) | – | – | –
CC(=O)N1CCC[C@]12CC=CCCCC1(CCCC=CCCCCCC[C@@](C)(C(=O)N[C@@H](Cc3ccccc3)C(=O)N[C@@H](Cc3csc4ccccc34)C(=O)N[C@@H](Cc3c[nH]cn3)C(N)=O)NC(=O)[C@H](CC(N)=O)NC(=O)[C@H](Cc3ccccc3)NC(=O)[C@H](C)NC(=O)[C@H](C)NC(=O)[C@H](CC(=O)O)NC(=O)[C@H](CC(=O)O)NC1=O)NC(=O)[C@H](CC(C)C)NC(=O)[C@H](CC(=O)O)NC2=O (stereo partly drawn) [I-564, Ac-PL3-Asp-Leu-B5-Asp-Asp-Ala-Ala-Phe-Asn-S8-Phe-BztA-His-NH2] | > 20000 nM | 2.374 | 36 nM | 36 nM | 47 µM (≈ 87.6 µg/mL) | – | – | –
CC(=O)N1CCC[C@]12CC=CCCCC1(CCCC=CCCCCCC[C@@](C)(C(=O)N[C@@H](Cc3ccccc3)C(=O)N[C@@H](Cc3csc4ccccc34)C(=O)N[C@@H](Cc3c[nH]cn3)C(N)=O)NC(=O)[C@H](CC(N)=O)NC(=O)[C@H](Cc3ccccc3)NC(=O)[C@H](C)NC(=O)[C@H](C)NC(=O)[C@H](CC(=O)O)NC(=O)[C@H](CC(=O)O)NC1=O)NC(=O)[C@H](CC(C)C)NC(=O)[C@H](CC(=O)O)NC2=O (stereo partly drawn) [I-565, Ac-PL3-Asp-Leu-B5-Asp-Asp-Ala-Ala-Phe-Asn-S8-Phe-BztA-His-NH2] | 26000 nM | 2.435 | 13 nM | 13 nM | 26 µM (≈ 48.5 µg/mL) | – | – | –
CC(=O)N1CCC[C@]12CC=CCCCC1(CCCC=CCCCCCC[C@@](C)(C(=O)N[C@@H](Cc3ccccc3)C(=O)N[C@@H](Cc3csc4ccccc34)C(=O)N[C@@H](CCC(N)=O)C(N)=O)NC(=O)[C@H](CC(N)=O)NC(=O)[C@H](Cc3ccccc3)NC(=O)[C@H](C)NC(=O)[C@H](C)NC(=O)[C@H](CC(=O)O)NC(=O)[C@H](CC(=O)O)NC1=O)NC(=O)[C@H](C(C)C)NC(=O)[C@H](CC(=O)O)NC2=O (stereo partly drawn) [I-567, Ac-PL3-Asp-Val-B5-Asp-Asp-Ala-Ala-Phe-Asn-S8-Phe-BztA-Gln-NH2] | – | 2.243 | 37 nM | 37 nM | 50 µM (≈ 92.1 µg/mL) | – | – | 8.9%
CC[C@@H]1NC(=O)[C@H](CC(=O)O)NC(=O)[C@]2(CC=CCCCC3(CCCC=CCCCCCC[C@@](C)(C(=O)N[C@@H](Cc4ccccc4)C(=O)N[C@@H](Cc4csc5ccccc45)C(=O)N[C@@H](Cc4c[nH]cn4)C(N)=O)NC(=O)[C@H](CCC(N)=O)NC(=O)[C@H](Cc4ccccc4)NC(=O)[C@H](C)NC(=O)[C@H](C)NC(=O)[C@H](CCC(=O)O)NC(=O)[C@H](CC(=O)O)NC3=O)NC1=O)CCCN2C(C)=O (stereo partly drawn) [I-571, Ac-PL3-Asp-Abu-B5-Asp-Glu-Ala-Ala-Phe-Gln-S8-Phe-BztA-His-NH2] | 15600 nM | 2.245 | 32 nM | 32 nM | 24 µM (≈ 44.7 µg/mL) | – | – | –
CC[C@@H]1NC(=O)[C@H](CC(=O)O)NC(=O)[C@]2(CC=CCCCC3(CCCC=CCCCCCC[C@@](C)(C(=O)N[C@@H](Cc4ccccc4)C(=O)N[C@@H](Cc4csc5ccccc45)C(=O)N[C@@H](CCC(N)=O)C(N)=O)NC(=O)[C@H](CC(N)=O)NC(=O)[C@H](Cc4ccccc4)NC(=O)[C@H](C)NC(=O)[C@H](C)NC(=O)[C@H](CC(=O)O)NC(=O)[C@H](CC(=O)O)NC3=O)NC1=O)CCCN2C(C)=O (stereo partly drawn) [I-573, Ac-PL3-Asp-Abu-B5-Asp-Asp-Ala-Ala-Phe-Asn-S8-Phe-BztA-Gln-NH2] | 33300 nM | 2.116 | 36 nM | 36 nM | 49 µM (≈ 89.5 µg/mL) | – | – | –
CC[C@@H]1NC(=O)[C@H](CC(=O)O)NC(=O)[C@]2(CC=CCCCC3(CCCC=CCCCCCC[C@@](C)(C(=O)N[C@@H](Cc4ccccc4)C(=O)N[C@@H](Cc4csc5ccccc45)C(=O)N[C@@H](Cc4c[nH]cn4)C(N)=O)NC(=O)[C@H](CC(N)=O)NC(=O)[C@H](Cc4ccccc4)NC(=O)[C@H](C)NC(=O)[C@H](C)NC(=O)[C@H](CC(=O)O)NC(=O)[C@H](CC(=O)O)NC3=O)NC1=O)CCCN2C(C)=O (stereo partly drawn) [I-574, Ac-PL3-Asp-Abu-B5-Asp-Asp-Ala-Ala-Phe-Asn-S8-Phe-BztA-His-NH2] | > 20000 nM | 2.16 | 36 nM | 36 nM | 48 µM (≈ 88.1 µg/mL) | – | – | –
CC(=O)N1CCC[C@]12CC=CCCCC1(CCCC=CCCCCCC[C@@](C)(C(=O)N[C@@H](Cc3ccccc3)C(=O)N[C@@H](Cc3csc4ccccc34)C(=O)N[C@@H](CCC(N)=O)C(N)=O)NC(=O)[C@H](CC(N)=O)NC(=O)[C@H](Cc3ccccc3)NC(=O)[C@H](C)NC(=O)[C@H](C)NC(=O)[C@H](CCC(=O)O)NC(=O)[C@H](CC(=O)O)NC1=O)NC(=O)[C@H](CC(C)C)NC(=O)[C@H](CC(=O)O)NC2=O (stereo partly drawn) [I-576, Ac-PL3-Asp-Leu-B5-Asp-Glu-Ala-Ala-Phe-Asn-S8-Phe-BztA-Gln-NH2] | 11100 nM | 2.348 | 23 nM | 23 nM | 46 µM (≈ 86 µg/mL) | – | – | –
